Experiments:
[1] = target: T1, cation channel connected to vanilloid receptor (Rattus norvegicus, UniProt O35433); assay: Channel activity assay (patch clamp test); format: cell-based; parameters: key: NR: no response; +: antagonistic potency equal to capsazepine; ++: antagonistic potency 10 times higher than capsazepine; conditions: potency relative to capsazepine
T1 construct: endogenous in cells
Protocol: (2) Channel Activity Assay
Antagonistic activities of test compounds were assayed based on electrical change of cation channel connected to vanilloid receptor and experiments were conducted according to reference method (Oh et al., 1996, J. Neuroscience 16, pp1659-1667) (Table 1).

Male ICR mice [2] = assay: Analgesic activity test: mouse writhing test by inducing with phenyl-p-quinone; format: in vivo; conditions: writhes vs control
Protocol: (3) Analgesic Activity Test: Mouse Writhing Test by Inducing with Phenyl-p-quinone
Male ICR mice (mean body weight 25 g) were maintained in a controlled lighting environment (12 h on/12 h off) for experiment. Animals received an intraperitoneal injection of 0.3 ml of the chemical irritant phenyl-p-quinone (dissolved in saline containing 5% ethanol to be a dose of 4.5 mg/kg) and 6 min later, the number of abdominal constrictions was counted in the subsequent 6 min period. Animals (10 animals/group) received 0.2 ml of test compounds solution in vehicle of ethanol/Tween 80/saline (10/10/80) intraperitoneally 30 min before the injection of phenyl-p-quinone. A reduction in the number of writhes responding to the test drug compound relative to the number responding in saline control group was considered to be indicative of an analgesic effect. Analgesic effect was calculated by % inhibition equation (% inhibition=(C−T)/C×100), wherein C and T represent the number of writhes in control and compound-treated group, respectively (Table 2).

Male ICR mice [3] = assay: Antiinflammatory activity test: TPA-induced mouse ear edema test; format: in vivo; conditions: dose 1 mg/ear topical; ear weight increase 24 h after TPA
Protocol: (4) Antiinflammatory Activity Test: TPA (12-O-tetradecanoylphorbol 13-acetate)-induced Mouse Ear Edema Test
Male ICR mice (body weight 25-30 g), 10 animals/group, were treated topically on the right ear with 30 μl of TPA (2.5 μg) solution in acetone and after 15 min, […] of acetone or test compound solution in acetone was applied topically. After six hours, an identical treatment was applied again. After twenty four hours following the treatment of TPA, the animals were sacrificed and ear tissue was dissected using 6 mm-diameter punch. Ear tissue dissected were weighed to the nearest 0.1 mg on an electrobalance. The increased weight of the tissue compared to control group was considered as an index of inflammation. The percent inhibition is defined by the following equation:
% inhibition=(C−T)/C×100, wherein C and T represent an increase of ear weight in TPA-treated and ThA+drug-treated group, respectively.

[4] = dose 10 mg/kg intraperitoneally 30 min before phenyl-p-quinone

T1 sequence (O35433 whole entry): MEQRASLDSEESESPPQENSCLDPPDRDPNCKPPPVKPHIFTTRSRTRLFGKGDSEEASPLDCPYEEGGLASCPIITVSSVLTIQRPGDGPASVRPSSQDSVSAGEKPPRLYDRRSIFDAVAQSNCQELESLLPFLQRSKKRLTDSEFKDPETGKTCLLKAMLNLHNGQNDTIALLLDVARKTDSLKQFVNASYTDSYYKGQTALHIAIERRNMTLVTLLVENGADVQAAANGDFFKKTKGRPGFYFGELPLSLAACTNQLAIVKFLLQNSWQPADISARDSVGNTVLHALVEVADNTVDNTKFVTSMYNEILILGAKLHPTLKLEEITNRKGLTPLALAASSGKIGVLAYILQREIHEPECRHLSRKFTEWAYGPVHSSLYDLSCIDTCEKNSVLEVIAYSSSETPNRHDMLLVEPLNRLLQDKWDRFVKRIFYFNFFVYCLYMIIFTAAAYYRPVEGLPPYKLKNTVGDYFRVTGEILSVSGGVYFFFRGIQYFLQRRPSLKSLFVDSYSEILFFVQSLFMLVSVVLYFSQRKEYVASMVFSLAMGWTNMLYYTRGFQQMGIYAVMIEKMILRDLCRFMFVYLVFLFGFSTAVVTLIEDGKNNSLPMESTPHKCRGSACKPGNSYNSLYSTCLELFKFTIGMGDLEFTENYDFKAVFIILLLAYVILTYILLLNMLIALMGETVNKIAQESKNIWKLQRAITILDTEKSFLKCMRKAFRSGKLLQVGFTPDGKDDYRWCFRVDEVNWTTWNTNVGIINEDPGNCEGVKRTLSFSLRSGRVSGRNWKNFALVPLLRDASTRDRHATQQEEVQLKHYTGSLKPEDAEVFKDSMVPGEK

SMILES | Patch clamp Test (antagonistic activities) [1] | Analgesic effect (% Inhibition) (Male ICR mice [2]; [4]) [%] | Anti-inflammatory effect (% Inhibition) (Male ICR mice [3]) [%] | Analgesic effect (% Inhibition) (Male ICR mice [2]; dose 1 mg/kg intraperitoneally 30 min before phenyl-p-quinone) [%]
COc1cc(CCC(CCc2ccc(C(F)(F)F)cc2)OC(=S)NCCc2ccccc2)ccc1O (stereo not shown) [Example 54] | + | 64 | 40 | 
COc1cc(CCC(C)(C)OC(=S)NCCc2ccccc2)ccc1O [Example 56] | + |  |  | 
COc1cc(OCC2CO2)ccc1O[Si](C)(C)C(C)(C)C (stereo not shown) [Example 60, t-butyl-(2-methoxy-4-oxiranylmethoxy-phenoxy)-dimethyl-silane] |  |  | 45 | 45

Continued, in another order:

Patch clamp Test (antagonistic activities) [1] | SMILES | Analgesic effect (% Inhibition) (Male ICR mice [2]; [4]) [%] | Anti-inflammatory effect (% Inhibition) (Male ICR mice [3]) [%] | Analgesic effect (% Inhibition) (Male ICR mice [2]; dose 1 mg/kg intraperitoneally 30 min before phenyl-p-quinone) [%]
+ | COc1cc(CCC(CCc2ccccc2)OC(=S)NCCc2ccccc2)ccc1O (stereo not shown) [Example 5, Phenethyl Thiocarbamic Acid O-[3-(4-hydroxy-3-methoxyphenyl)-1-phenethylpropyl] Ester] | 44 | 33 | 
+ | CCC(COc1ccc(NS(C)(=O)=O)c(C(F)(F)F)c1)OC(=S)NCCc1ccccc1 (stereo not shown) [Example 83] |  |  | 
